Counter-ions that a name gives are not always drawn.
Assays:
P-388 leukemia cells = experiment: Antitumor activity against P-388 leukemia cells (i.p. implanted, i.v. drug); format: in vivo, BDF1 mice; conditions: Mus musculus, P388, iv, 720 h, i.v., 30-day observation, read-out: T/C of MST; for response vs control in vivo at 20 mg/kg: dose b: 20 mg/kg/d × 3 (days 1, 5, 9); for response vs control in vivo at 40 mg/kg: dose c: 40 mg/kg/d × 3 (days 1, 5, 9); for response vs control in vivo at 80 mg/kg: dose f: 80 mg/kg/d × 3 (days 1, 5, 9); for response vs control in vivo at 20 mg/kg/day: dose b': 20 mg/kg/d × 2 (days 1, 5)
Description: BDF1 mice were implanted intraperitoneally with P-388 leukemia cells at a rate of 1×10^6 cells/mouse, and each drug to be tested was administered intravenously on the first, fifth and ninth days, or on the first and fifth days after the implantation. […] The T/C (%) was calculated based on the following equation: [formula]
The drugs tested were as follows: solutions prepared by dissolving each of compound Nos. 34, 36 and 43 to 46 in physiological saline; suspension or solutions prepared by dissolving each of compound Nos. 35, 38 and 49 to 55 in dimethylacetamide, followed by adding thereto a small amount of a surface active agent (e.g., Tween-80) and then physiological saline; and suspension or solutions prepared by mixing each of the other compounds and a small amount of a surface active agent (e.g., Tween-80), followed by adding thereto physiological saline.

B-16 melanoma = experiment: Antitumor activity against B-16 melanoma (i.v. drug); format: in vivo, BDF1 mice; conditions: 60-day observation
Description: BDF1 mice were implanted intraperitoneally with a B-16 melanoma cell suspension in an amount of 0.5 ml/mouse, and each drug to be tested was administered intravenously on the first, fifth and ninth days after the implantion. […] The T/C (%) was calculated in the same manner as aforementioned (1--1).
The B-16 melanoma cell suspension was prepared as follows. Tumor fragment, maintained by subcutaneous passages in C57BL/6 mice, were aseptically removed and passed through a sterile stainless-steel mesh. Thus obtained tumor was dispersed in a culture medium or physiological saline in an amount of 9 ml per 1 g of tumor.

[1] = Acute toxicity (LD50, single intravenous administration); set-up: species or system day mice; conditions: mouse, in vivo, mice, single i.v.
From the text: In Table 15 are shown acute toxicity values (LD50, mg/kg) in day mice in the case of intravenously administering (once) each of the compounds of this invention in the form of preparations shown in the Preparation Examples shown in Table 16.

Row | SMILES | response vs control in vivo at 20 mg/kg (P-388 leukemia cells) | LD50 ([1]; Preparation Example 2) | response vs control in vivo at 40 mg/kg (P-388 leukemia cells) | also measured
1 | COC1C(O)C(C)OC(OC2C(Oc3cccc4c(OC(=O)c5cccs5)c5c(=O)oc6ccc(C)c7c(=O)oc(c34)c5c67)OC(C)C3OC(c4ccccc4)OC32)C1O (stereo not shown) [Compound 11, 6-O-(2-thienyl-carbonyl)-3',4'-O-benzylidene-chartreusin] | 217% | ≥ 60 mg/kg |  | T/C (%) of MST (B-16 melanoma; 60 mg/kg × 3 (days 1, 5, 9)): 143%
2 | COC1C(O)C(C)OC(OC2C(Oc3cccc4c(OC(=O)c5ccco5)c5c(=O)oc6ccc(C)c7c(=O)oc(c34)c5c67)OC(C)C3OC(c4ccccc4)OC32)C1O (stereo not shown) [Compound 6] | 199% | ≥ 60 mg/kg | 217% | T/C (%) of MST (B-16 melanoma; 60 mg/kg × 3 (days 1, 5, 9)): 159%
3 | CCn1cc(C(=O)Oc2c3cccc(OC4OC(C)C5OC(c6ccccc6)OC5C4OC4OC(C)C(O)C(OC)C4O)c3c3oc(=O)c4c(C)ccc5oc(=O)c2c3c54)c(=O)c2ccc(C)nc21 (stereo not shown) [Compound 33, 6-O-{3-(1,4-dihydro-1-ethyl-7-methyl-4-oxo-1,8-naphthyridinyl)-carbonyl}-3',4'-O-benzylidene-chartreusin] | 218% |  | 274% | T/C (%) of MST (B-16 melanoma; 40 mg/kg × 3 (days 1, 5, 9)): 142%; LD50 ([1]; Preparation Example 1): ≥ 40 mg/kg
4 | COC1C(O)C(C)OC(OC2C(Oc3cccc4c(OC(=O)c5ccc6[nH]ccc6c5)c5c(=O)oc6ccc(C)c7c(=O)oc(c34)c5c67)OC(C)C3OC(c4ccccc4)OC32)C1O (stereo not shown) [Compound 18] | 167% | ≥ 40 mg/kg | 242% | 
5 | COC1C(O)C(C)OC(OC2C(Oc3cccc4c(OC(=O)Cc5cccs5)c5c(=O)oc6ccc(C)c7c(=O)oc(c34)c5c67)OC(C)C3OC(C)(C)OC32)C1O (stereo not shown) [Compound 13] |  |  | 134% | response vs control in vivo at 80 mg/kg (P-388 leukemia cells): 182%; LD50 ([1]; Preparation Example 3): ≥ 80 mg/kg
6 | COC1C(O)C(C)OC(OC2C(Oc3cccc4c(OC(=O)Cc5c[nH]c6ccccc56)c5c(=O)oc6ccc(C)c7c(=O)oc(c34)c5c67)OC(C)C3OC(c4ccccc4)OC32)C1O (stereo not shown) [Compound 20] | 148% | ≥ 40 mg/kg | 286% | 
7 | COC1C(O)C(C)OC(OC2C(Oc3cccc4c(OC(=O)c5ccc(Br)o5)c5c(=O)oc6ccc(C)c7c(=O)oc(c34)c5c67)OC(C)C3OC(C)(C)OC32)C1O (stereo not shown) [Compound 8, 6-O-{2-(5-bromofuryl)-carbonyl}-3',4'-O-isopropylidene-chartreusin] |  |  |  | response vs control in vivo at 80 mg/kg (P-388 leukemia cells): 178%; LD50 ([1]; Preparation Example 3): ≥ 80 mg/kg
8 | COC1C(O)C(C)OC(OC2C(Oc3cccc4c(OC(=O)C=Cc5c[nH]cn5)c5c(=O)oc6ccc(C)c7c(=O)oc(c34)c5c67)OC(C)C3OC(c4ccccc4)OC32)C1O (stereo not shown) [Compound 16] |  | ≥ 40 mg/kg | 148% | 
9 | COC1C(O)C(C)OC(OC2C(Oc3cccc4c(OC(=O)c5ccc6ccccc6n5)c5c(=O)oc6ccc(C)c7c(=O)oc(c34)c5c67)OC(C)C3OC(C)(C)OC32)C1O (stereo not shown) [Compound 27] |  |  | 142% | LD50 ([1]; Preparation Example 5): ≥ 80 mg/kg
10 | COC1C(N)C(C)OC(OC2C(Oc3cccc4c(OC(=O)CCC(C)=O)c5c(=O)oc6ccc(C)c7c(=O)oc(c34)c5c67)OC(C)C3OC(c4ccccc4)OC32)C1O (stereo not shown) [Compound 48] | 166% |  | 219% | LD50 ([1]; Preparation Example 1): ≥ 40 mg/kg
11 | COC1C(N)C(C)OC(OC2C(Oc3cccc4c(OC(=O)c5ccc(Cl)cc5)c5c(=O)oc6ccc(C)c7c(=O)oc(c34)c5c67)OC(C)C3OC(c4ccccc4)OC32)C1O (stereo not shown) [Compound 52] | 167% |  |  | LD50 ([1]; Preparation Example 6): ≥ 20 mg/kg
12 | COC1C(O)C(C)OC(OC2C(Oc3cccc4c(OC(=O)C5CCN(C(=O)C(F)(F)F)CC5)c5c(=O)oc6ccc(C)c7c(=O)oc(c34)c5c67)OC(C)C3OC(C)(C)OC32)C1O (stereo not shown) [Compound 23] |  |  | 127% | LD50 ([1]; Preparation Example 3): ≥ 40 mg/kg
13 | COC1C(N)C(C)OC(OC2C(Oc3cccc4c(OC(=O)CCCCCNC(=O)C(F)(F)F)c5c(=O)oc6ccc(C)c7c(=O)oc(c34)c5c67)OC(C)C3OC(c4ccccc4)OC32)C1O (stereo not shown) [Compound 37, 6-O-(n-trifluoroacetyl-6-amino-n-hexanoyl)-3',4'-O-benzylidene-4"-epiamino-4"-deoxy-chartreusin hydrochloride] | 148% |  | 191% | LD50 ([1]; Preparation Example 1): ≥ 40 mg/kg
14 | COC1C(O)C(C)OC(OC2C(Oc3cccc4c(OC(=O)c5ccoc5)c5c(=O)oc6ccc(C)c7c(=O)oc(c34)c5c67)OC(C)C3OC(C)(C)OC32)C1O (stereo not shown) [Compound 7] |  |  | 149% | response vs control in vivo at 80 mg/kg (P-388 leukemia cells): 194%; LD50 ([1]; Preparation Example 3): ≥ 80 mg/kg
15 | CCCCCC(=O)Oc1c2cccc(OC3OC(C)C4OC(c5ccccc5)OC4C3OC3OC(C)C(N)C(OC)C3O)c2c2oc(=O)c3c(C)ccc4oc(=O)c1c2c43 (stereo not shown) [Compound 54] |  |  |  | response vs control in vivo at 20 mg/kg/day (P-388 leukemia cells): 165%; LD50 ([1]; Preparation Example 7): ≥ 40 mg/kg
16 | COC1C(O)C(C)OC(OC2C(Oc3cccc4c(OC(=O)c5cc6ccccc6[nH]5)c5c(=O)oc6ccc(C)c7c(=O)oc(c34)c5c67)OC(C)C3OC(c4cccc(F)c4)OC32)C1O (stereo not shown) [Compound 30, 6-O-(2-indolyl-carbonyl)-3',4'-O-(m-fluorobenzylidene)-chartreusin] |  | ≥ 80 mg/kg |  | response vs control in vivo at 80 mg/kg (P-388 leukemia cells): 142%
17 | COC1C(O)C(C)OC(OC2C(Oc3cccc4c(OC(=O)c5ccco5)c5c(=O)oc6ccc(C)c7c(=O)oc(c34)c5c67)OC(C)C3OC(C)(C)OC32)C1O (stereo not shown) [Compound 5] |  |  |  | response vs control in vivo at 80 mg/kg (P-388 leukemia cells): 217%; LD50 ([1]; Preparation Example 4): ≥ 80 mg/kg
18 | COC1C(N)C(C)OC(OC2C(Oc3cccc4c(OC(=O)CC(C)NC(=O)C(F)(F)F)c5c(=O)oc6ccc(C)c7c(=O)oc(c34)c5c67)OC(C)C3OC(c4ccccc4)OC32)C1O (stereo not shown) [Compound 41] |  |  | 187% | LD50 ([1]; Preparation Example 1): ≥ 40 mg/kg
19 | COC1C(N)C(C)OC(OC2C(Oc3cccc4c(OC(=O)C(C)CNC(=O)C(F)(F)F)c5c(=O)oc6ccc(C)c7c(=O)oc(c34)c5c67)OC(C)C3OC(C)(C)OC32)C1O (stereo not shown) [Compound 56] |  |  |  | response vs control in vivo at 80 mg/kg (P-388 leukemia cells): 138%; LD50 ([1]; Preparation Example 1): ≥ 80 mg/kg
20 | COC1C(O)C(C)OC(OC2C(Oc3cccc4c(OC(=O)c5cc6cc(O)ccc6[nH]5)c5c(=O)oc6ccc(C)c7c(=O)oc(c34)c5c67)OC(C)C3OC(c4ccccc4)OC32)C1O (stereo not shown) [Compound 102] |  |  |  | response vs control in vivo at 60 mg/kg (P-388 leukemia cells; dose e: 60 mg/kg/d × 3 (days 1, 5, 9)): 256%; response vs control in vivo at 30 mg/kg (P-388 leukemia cells; dose j: 30 mg/kg/d × 3 (days 1, 5, 9)): 233%; LD50 ([1]; Preparation Example 1): ≥ 60 mg/kg
21 | COC1C(O)C(C)OC(OC2C(Oc3cccc4c(OC(=O)C5CC(=O)CC(C)(C)O5)c5c(=O)oc6ccc(C)c7c(=O)oc(c34)c5c67)OC(C)C3OC(c4ccccc4)OC32)C1O (stereo not shown) [Compound 32] |  | ≥ 40 mg/kg |  | response vs control in vivo at 20 mg/kg/day (P-388 leukemia cells): 185%; response vs control in vivo at 40 mg/kg/day (P-388 leukemia cells; dose c': 40 mg/kg/d × 2 (days 1, 5)): 213%
22 | CCOCCC(=O)Oc1c2cccc(OC3OC(C)C4OC(c5ccccc5)OC4C3OC3OC(C)C(N)C(OC)C3O)c2c2oc(=O)c3c(C)ccc4oc(=O)c1c2c43 (stereo not shown) [Compound 35] | 188% |  | 244% | LD50 ([1]; Preparation Example 6): ≥ 40 mg/kg
23 | CNCC(C)C(=O)Oc1c2cccc(OC3OC(C)C4OC(c5ccccc5)OC4C3OC3OC(C)C(N)C(OC)C3O)c2c2oc(=O)c3c(C)ccc4oc(=O)c1c2c43 (stereo not shown) [Compound 44] | 138% |  | 148% | LD50 ([1]; Preparation Example 8): ≥ 40 mg/kg

Reference: patent publication US4927919A, “Chartreusin derivatives and salts thereof” (Ishihara Sangyo Kaisha, Ltd., priority 1985, dated 1990)
